Test results taken from paper PMC5352699, “Synthesis and in vitro antitumor activity of (1E,4E)-1-aryl-5-(2-((quinazolin-4-yl)oxy)phenyl)-1,4-pentadien-3-one derivatives” (Chemistry Central Journal, 2017).

Key:
[1] = system: human breast cancer cell line Bcap-37; experiment: MTT assay, Bcap-37 cells; assay type: cell-based; conditions: for inhibition at 10 µM: Bcap37, 10 μM, 72 h, read-out: Inhibition rates against different cells (%) Bcap-37; for IC50: Bcap37, 72 h after treatment
Description: (§1) The in vitro antitumor activity of the newly synthesized compounds 5a–5n were evaluated against a panel of three human cancer cell lines, including human gastric cancer cell line MGC-803, human prostate cancer cell line PC3, and human breast cancer cell line Bcap-37, and one normal cell line NIH3T3 (mouse embryo fibroblast cell line) by MTT method. Adriamycin (ADM) was chosen as a reference drug due to its availability and widespread use. Each experiment was repeated at least three times.
(§2) Human gastric cancer cell line MGC-803, human prostate cancer cell line PC3, and human breast cancer cell line Bcap-37 and one normal cell line NIH3T3 were obtained from Cell Bank of Type Culture Collection of Chinese Academy of Sciences (Shanghai, China). NIH3T3 was routinely maintained in a DMEM medium, while all the other cell lines were cultured in a 1640 medium. All the cells were grown in the medium supplemented with 10% FBS at 37 °C with 5% CO2.
(§3) The growth-inhibitory effects of the test compounds were determined on MGC-803, PC3, Bcap-37, and NIH3T3 cells. All cell types were seeded into 96-well plates at a density of 2 × 10^3 cells/well 100 μL of the proper culture medium and incubated with increasing concentrations of the compounds at 37 °C under cell culturing conditions. An MTT assay (Roche Molecular Biochemicals, 1465-007) was performed 72 h later according to the instructions provided by Roche. The precipitated formazan crystals were dissolved in SDS, and the absorbance was read at 595 nm with a microplate reader (BIO-RAD, model 680), which is directly proportional to the number of living cells in culture. The experiment was performed in triplicate. The percentage cytotoxicity was calculated using the formula. %Cytotoxicity=Controlabs-Blankabs-Testabs-Blankabs/Controlabs-Blankabs×100

[2] = system: human gastric cancer cell line MGC-803; experiment: MTT assay, MGC-803 cells; assay type: cell-based; conditions: for inhibition at 10 µM: 72 h, read-out: Inhibition rates against different cells (%) MGC-803; for IC50: 72 h after treatment
Description: as §1, §2, §3

[3] = system: normal cell line NIH3T3 (mouse embryo fibroblast cell line); experiment: MTT assay, NIH3T3 normal cells; assay type: cell-based; conditions: 72 h, read-out: Inhibition rates against different cells (%) NIH3T3
Description: as §1, §2, §3

[4] = system: human prostate cancer cell line PC3; experiment: MTT assay, PC3 cells; assay type: cell-based; conditions: for inhibition at 10 µM: PC-3, 10 μM, 72 h, read-out: Inhibition rates against different cells (%) PC3; for IC50: PC-3, 72 h after treatment
Description: as §1, §2, §3

| Compound | melting point | inhibition at 10 µM [1] | IC50 [1] | inhibition at 10 µM [2] | IC50 [2] | inhibition at 10 µM [3] | inhibition at 10 µM [4] | IC50 [4] |
| --- | --- | --- | --- | --- | --- | --- | --- | --- |
| Cc1cccc2c(Oc3ccccc3/C=C/C(=O)/C=C/c3ccc(Cl)cc3)ncnc12 [Compound 5j, (1E,4E)-1-(4-chlorophenyl)-5-(2-((8-methylquinazolin-4-yl)oxy)phenyl)penta-1,4-dien-3-one] | 161 to 163 °C | 45.4 ± 2.2% | 12.1 ± 0.31 µM | 76.3 ± 0.8% | 6.42 ± 0.44 µM | 41 ± 2.1% | 71.9 ± 3.1% | 8.64 ± 0.47 µM |
| Cc1cccc2c(Oc3ccccc3/C=C/C(=O)/C=C/c3cc([N+](=O)[O-])ccc3Cl)ncnc12 [Compound 5k, (1E,4E)-1-(2-chloro-5-nitrophenyl)-5-(2-((8-methylquinazolin-4-yl)oxy)phenyl)penta-1,4-dien-3-one] | 198 to 200 °C | 60.2 ± 1.4% | 8.92 ± 0.58 µM | 82.1 ± 3% | 2.94 ± 0.32 µM | 3 ± 2.3% | 76.3 ± 2.5% | 8.12 ± 0.46 µM |
| Cc1ccc2ncnc(Oc3ccccc3/C=C/C(=O)/C=C/c3ccccc3F)c2c1 [Compound 5a, (1E,4E)-1-(2-fluorophenyl)-5-(2-((6-methylquinazolin-4-yl)oxy)phenyl)penta-1,4-dien-3-one] |  | 44.1 ± 2.6% | 11.7 ± 0.39 µM | 71.9 ± 0.9% | 7.69 ± 0.37 µM | 65.7 ± 1.3% | 68.5 ± 2.3% | 9.24 ± 0.46 µM |
| Cc1cccc2c(Oc3ccccc3/C=C/C(=O)/C=C/c3ccc(Cl)cc3Cl)ncnc12 [Compound 5l, (1E,4E)-1-(2,4-dichlorophenyl)-5-(2-((8-methylquinazolin-4-yl)oxy)phenyl)penta-1,4-dien-3-one] | 175 to 178 °C | 54.6 ± 1% | 9.83 ± 0.46 µM | 61.2 ± 1.3% | 4.33 ± 0.35 µM | 0.8 ± 1.6% | 55.7 ± 1.5% | 9.08 ± 0.52 µM |
| Cc1ccc2ncnc(Oc3ccccc3/C=C/C(=O)/C=C/c3ccc(Cl)cc3)c2c1 [Compound 5c, (1E,4E)-1-(4-chlorophenyl)-5-(2-((6-methylquinazolin-4-yl)oxy)phenyl)penta-1,4-dien-3-one] | 173 to 176 °C | 54.2 ± 1.1% | 9.34 ± 0.52 µM | 79.2 ± 2.8% | 5.44 ± 0.45 µM | 16.1 ± 2.7% | 76.5 ± 1.7% | 7.85 ± 0.32 µM |
| COc1ccc(OC)c(/C=C/C(=O)/C=C/c2ccccc2Oc2ncnc3c(C)cccc23)c1 [Compound 5n, (1E,4E)-1-(2,5-dimethoxyphenyl)-5-(2-((8-methylquinazolin-4-yl)oxy)phenyl)penta-1,4-dien-3-one] | 176 to 178 °C | 55.8 ± 1.1% | 8.7 ± 0.54 µM | 78.7 ± 2.7% | 3.33 ± 0.42 µM | 29.6 ± 2.4% | 69 ± 1.7% | 4.16 ± 0.43 µM |
| Cc1ccc2ncnc(Oc3ccccc3/C=C/C(=O)/C=C/c3ccc(Cl)cc3Cl)c2c1 [Compound 5e, (1E,4E)-1-(2,4-dichlorophenyl)-5-(2-((6-methylquinazolin-4-yl)oxy)phenyl)penta-1,4-dien-3-one] | 211 to 214 °C | 67.3 ± 3.9% | 9.6 ± 0.42 µM | 87 ± 1% | 1.89 ± 0.26 µM | 53.8 ± 1.8% | 75.2 ± 7.8% | 4.71 ± 0.36 µM |
| Cc1ccc2ncnc(Oc3ccccc3/C=C/C(=O)/C=C/c3ccccc3Cl)c2c1 [Compound 5b, (1E,4E)-1-(2-chlorophenyl)-5-(2-((6-methylquinazolin-4-yl)oxy)phenyl)penta-1,4-dien-3-one] | 152 to 154 °C | 57.3 ± 2% | 10.1 ± 0.67 µM | 83.5 ± 1.5% | 5.2 ± 0.51 µM | 15.4 ± 1.5% | 78.7 ± 2.4% | 8.12 ± 0.46 µM |
| Cc1cccc2c(Oc3ccccc3/C=C/C(=O)/C=C/c3c(Cl)cccc3Cl)ncnc12 [Compound 5m, (1E,4E)-1-(2,6-dichlorophenyl)-5-(2-((8-methylquinazolin-4-yl)oxy)phenyl)penta-1,4-dien-3-one] | 161 to 163 °C | 66.4 ± 1.5% | 7.82 ± 0.39 µM | 81.1 ± 1.7% | 2.05 ± 0.39 µM | 12.4 ± 2.5% | 81.2 ± 2.8% | 3.79 ± 0.47 µM |
| COc1cccc2c1C(=O)c1c(O)c3c(c(O)c1C2=O)C[C@@](O)(C(=O)CO)C[C@@H]3O[C@H]1C[C@H](N)[C@H](O)[C@H](C)O1 [ADM, Adriamycin, reference compound] |  | 94.5 ± 0.9% | 1.9 ± 0.25 µM | 97.5 ± 1.2% | 0.74 ± 0.24 µM | 100 ± 0.7% | 91.2 ± 0.4% | 1.01 ± 0.2 µM |
| Cc1cccc2c(Oc3ccccc3/C=C/C(=O)/C=C/c3ccccc3Cl)ncnc12 [Compound 5i, (1E,4E)-1-(2-chlorophenyl)-5-(2-((8-methylquinazolin-4-yl)oxy)phenyl)penta-1,4-dien-3-one] | 152 to 154 °C | 47.1 ± 2.6% | 10.7 ± 0.62 µM | 79.4 ± 2.4% | 7.78 ± 0.48 µM | 14.4 ± 2.6% | 65.1 ± 2.6% | 9.36 ± 0.52 µM |
| COc1ccc(OC)c(/C=C/C(=O)/C=C/c2ccccc2Oc2ncnc3ccc(C)cc23)c1 [Compound 5g] | 122 to 123 °C | 74.9 ± 2% | 5.61 ± 0.5 µM | 85.9 ± 1.2% | 2.02 ± 0.37 µM | 74.3 ± 0.9% | 83.1 ± 2.8% | 2.18 ± 0.31 µM |
| Cc1ccc2ncnc(Oc3ccccc3/C=C/C(=O)/C=C/c3cc([N+](=O)[O-])ccc3Cl)c2c1 [Compound 5d, (1E,4E)-1-(2-chloro-5-nitrophenyl)-5-(2-((6-methylquinazolin-4-yl)oxy)phenyl)penta-1,4-dien-3-one] |  | 58.5 ± 1.3% | 7.52 ± 0.36 µM | 87.5 ± 0.2% | 1.72 ± 0.22 µM | 71.9 ± 1.4% | 86.3 ± 0.8% | 2.68 ± 0.43 µM |
| Cc1cccc2c(Oc3ccccc3/C=C/C(=O)/C=C/c3ccccc3F)ncnc12 [Compound 5h, (1E,4E)-1-(2-fluorophenyl)-5-(2-((8-methylquinazolin-4-yl)oxy)phenyl)penta-1,4-dien-3-one] |  | 36.6 ± 2.7% | 15.6 ± 0.51 µM | 62.3 ± 1.4% | 9.06 ± 0.4 µM | 13.4 ± 2.2% | 43.7 ± 12.1% | 11.7 ± 0.48 µM |
